Activity calls are given as the source filed them.
How the values were obtained:
Type in all cases: functional
[1] = biological target: Multidrug resistance protein CDR2 (Candida albicans (strain SC5314 / ATCC MYA-2876) (Yeast), UniProt P78595); test: inhibition of Nile Red efflux via Candida CDR2 – S. cerevisiae AD1-8u, singleplex, Cherry Pick1 hits, dose response (AID 588604)
[2] = biological target: Benomyl/methotrexate resistance protein (Candida albicans, UniProt P28873); test: Candida albicans Mdr1 pump inhibition curves – singleplex, Cherry Pick1 hits, dose response (AID 588608)
[3] = biological target: Melanin-concentrating hormone receptor 1 (Homo sapiens, UniProt Q99705); test: Late-stage fluorescence-based counterscreen for antagonists of the G-protein coupled receptor 7 (GPR7): cell-based dose response assay to identify antagonists of the melanin-concentrating hormone receptor 1 (MCHR1) Set 5.
[4] = biological target: Neuropeptides B/W receptor type 1 (Homo sapiens, UniProt P48145); test: human NPBW1 receptor blockade, IC50 – cell-based, fluorescence, dose response, set 5, late-stage follow-up (AID 588566)
Sequence of Neuropeptides B/W receptor type 1 (P48145 whole entry): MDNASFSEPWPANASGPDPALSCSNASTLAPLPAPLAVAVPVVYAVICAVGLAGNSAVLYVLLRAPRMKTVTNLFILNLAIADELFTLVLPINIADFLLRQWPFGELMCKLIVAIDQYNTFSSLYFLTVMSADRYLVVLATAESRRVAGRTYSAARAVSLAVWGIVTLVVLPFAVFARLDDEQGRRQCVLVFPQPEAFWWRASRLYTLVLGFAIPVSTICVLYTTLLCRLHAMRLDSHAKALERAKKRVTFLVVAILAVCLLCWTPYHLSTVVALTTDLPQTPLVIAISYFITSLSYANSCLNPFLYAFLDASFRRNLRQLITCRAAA

Sequence of Benomyl/methotrexate resistance protein (P28873 whole entry): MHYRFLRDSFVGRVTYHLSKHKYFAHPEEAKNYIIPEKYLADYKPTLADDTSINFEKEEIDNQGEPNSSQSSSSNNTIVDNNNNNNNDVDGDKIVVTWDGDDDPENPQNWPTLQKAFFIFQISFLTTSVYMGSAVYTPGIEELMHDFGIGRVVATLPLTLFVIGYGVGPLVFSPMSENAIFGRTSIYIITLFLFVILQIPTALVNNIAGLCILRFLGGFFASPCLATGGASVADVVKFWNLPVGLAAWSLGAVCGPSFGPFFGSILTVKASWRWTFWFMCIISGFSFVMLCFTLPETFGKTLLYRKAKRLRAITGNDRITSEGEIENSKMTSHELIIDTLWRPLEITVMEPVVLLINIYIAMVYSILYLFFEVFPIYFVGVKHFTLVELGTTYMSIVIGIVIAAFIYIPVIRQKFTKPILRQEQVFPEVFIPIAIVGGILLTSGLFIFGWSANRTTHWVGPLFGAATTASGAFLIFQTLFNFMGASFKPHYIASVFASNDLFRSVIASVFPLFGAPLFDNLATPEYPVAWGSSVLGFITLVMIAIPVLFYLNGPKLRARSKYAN
Sequence of Melanin-concentrating hormone receptor 1 (Q99705 whole entry): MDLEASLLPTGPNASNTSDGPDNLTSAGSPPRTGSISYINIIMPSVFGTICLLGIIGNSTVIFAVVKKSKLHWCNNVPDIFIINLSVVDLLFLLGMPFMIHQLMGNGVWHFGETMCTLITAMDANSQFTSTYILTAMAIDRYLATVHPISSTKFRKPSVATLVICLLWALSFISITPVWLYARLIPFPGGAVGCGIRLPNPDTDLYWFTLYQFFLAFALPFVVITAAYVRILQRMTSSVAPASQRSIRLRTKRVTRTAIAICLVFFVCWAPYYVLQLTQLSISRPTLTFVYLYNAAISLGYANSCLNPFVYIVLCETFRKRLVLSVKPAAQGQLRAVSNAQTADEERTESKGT
Sequence of Multidrug resistance protein CDR2 (P78595 whole entry): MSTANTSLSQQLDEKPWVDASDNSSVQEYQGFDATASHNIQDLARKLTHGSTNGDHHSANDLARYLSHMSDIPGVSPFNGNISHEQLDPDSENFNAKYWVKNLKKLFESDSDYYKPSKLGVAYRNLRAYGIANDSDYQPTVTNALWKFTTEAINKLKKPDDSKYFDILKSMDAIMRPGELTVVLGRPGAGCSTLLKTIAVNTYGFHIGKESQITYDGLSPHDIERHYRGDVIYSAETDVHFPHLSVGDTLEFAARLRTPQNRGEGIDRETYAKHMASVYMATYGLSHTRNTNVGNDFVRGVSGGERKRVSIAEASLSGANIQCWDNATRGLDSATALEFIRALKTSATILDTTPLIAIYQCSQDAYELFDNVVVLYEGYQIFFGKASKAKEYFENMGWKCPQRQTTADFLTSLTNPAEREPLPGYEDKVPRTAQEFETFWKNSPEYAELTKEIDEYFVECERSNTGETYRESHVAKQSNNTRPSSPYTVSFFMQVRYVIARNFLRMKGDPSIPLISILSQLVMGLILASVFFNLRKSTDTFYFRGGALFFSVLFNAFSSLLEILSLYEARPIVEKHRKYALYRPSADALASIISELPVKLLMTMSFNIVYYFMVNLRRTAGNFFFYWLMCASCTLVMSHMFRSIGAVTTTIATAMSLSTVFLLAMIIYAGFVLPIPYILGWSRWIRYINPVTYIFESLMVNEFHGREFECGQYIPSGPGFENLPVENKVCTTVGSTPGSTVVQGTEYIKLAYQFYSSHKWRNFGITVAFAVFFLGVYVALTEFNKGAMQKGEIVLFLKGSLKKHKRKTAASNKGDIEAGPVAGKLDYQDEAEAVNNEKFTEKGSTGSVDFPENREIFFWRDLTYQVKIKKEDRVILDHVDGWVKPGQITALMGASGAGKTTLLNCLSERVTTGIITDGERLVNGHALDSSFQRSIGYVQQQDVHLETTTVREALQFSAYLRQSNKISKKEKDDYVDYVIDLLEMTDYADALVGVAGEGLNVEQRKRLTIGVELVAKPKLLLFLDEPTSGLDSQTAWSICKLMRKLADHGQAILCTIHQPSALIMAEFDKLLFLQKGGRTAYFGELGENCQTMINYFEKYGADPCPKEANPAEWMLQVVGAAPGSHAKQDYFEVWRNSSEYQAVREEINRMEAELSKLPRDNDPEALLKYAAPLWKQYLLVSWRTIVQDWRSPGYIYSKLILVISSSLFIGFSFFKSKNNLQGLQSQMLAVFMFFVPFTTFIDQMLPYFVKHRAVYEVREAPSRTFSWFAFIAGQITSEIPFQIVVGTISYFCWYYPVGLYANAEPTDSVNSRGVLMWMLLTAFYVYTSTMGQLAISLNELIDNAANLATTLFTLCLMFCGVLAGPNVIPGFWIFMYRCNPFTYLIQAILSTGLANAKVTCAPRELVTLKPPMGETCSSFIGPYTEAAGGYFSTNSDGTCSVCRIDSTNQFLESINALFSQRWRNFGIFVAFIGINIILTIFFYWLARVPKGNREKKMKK

Row | IC50 [3] | IC50 [4] | Structure (SMILES) | EC50 [1] | EC50 [2]
1 |  |  | CCN(CC)c1ccc(/C=C/c2cc(-c3ccccc3)c3ccccc3n2)cc1 | 16.1 µM (active) | 3.32 µM (active)
2 | 14.8 µM (inactive) | 1.88 µM (active) | CCOc1ccc(Oc2c(Cl)c(C)nn(Cc3cccc4ccccc34)c2=O)cc1 |  | 

Source: ChEMBL document CHEMBL1201862, “PubChem BioAssay data set” (2004)
